Assay results taken from patent US11206827B2, “Herbicidal composition comprising cinmethylin and specific quinolinecarboxylic acids” (BASF Agro B.V., priority 2015, dated 2021).

Experiments:
Format in all cases: in vivo
Details in all cases: solo application, 20 DAT
Setaria viridis = assay: Greenhouse pre-emergence herbicidal activity, SETVI
Method: (§1) The test plants have been seeded, separately for each species, in plastic containers in sandy loamy soil containing 5% of organic matter.
(§2) The containers were irrigated gently to promote germination and growth and subsequently covered with transparent plastic hoods until the plants had rooted.
(§3) The plants have been cultivated due to their individual requirements at 10-25° C. and 20-35° C. The plants were irrigated due to their necessity.
(§4) The racemic mixture (±)-2-exo-(2-Methylbenzyloxy)-1-methyl-4-isopropyl-7-oxabicyclo[2.2.1]heptane was used as herbicide A and formulated as emulsifiable concentrates with an active ingredient concentration of 50 g/l, 100 g/l or 750 g/l respectively.
(§5) Quinmerac (herbicide B.2) was used as a wettable powder (WP) formulation having an active ingredient concentration of 50%.
(§6) In the following experiments, the herbicidal activity for the individual herbicidal compositions (solo and mixture applications) was assessed 20 days after treatment (DAT).
(§7) The evaluation for the damage on undesired weeds caused by the chemical compositions was carried out using a scale from 0 to 100%, compared to the untreated control plants. Here, 0 means no damage and 100 means complete destruction of the plants.
(§8) The plants used in the greenhouse experiments belonged to the following species:
(§9) where X=effect in percent using herbicide A at an application rate a; • Y=effect in percent using herbicide B at application rate b; • E=expected effect (in %) of herbicide A+ herbicide B at application rates a+b.
(§10) The value E corresponds to the effect (plant damage or injury) which is to be expected if the activity of the individual compounds is additive. If the observed effect is higher than the value E calculated according to the Colby equation, a synergistic effect is present.
(§11) Table 1 below relates to the herbicidal activity, in greenhouse trials, of the individual actives and the combinations applied at different rates and ratios, in pre-emergence application at 20 days after treatment (DAT).

Abutilon theophrasti = assay: Greenhouse pre-emergence herbicidal activity, ABUTH
Method: as §1, §2, §3, §4, §5, §6, §7, §8, §9, §10, §11

Digitaria sanguinalis = assay: Greenhouse pre-emergence herbicidal activity, DIGSA
Method: as §1, §2, §3, §4, §5, §6, §7, §8, §9, §10, §11

Papaver rhoeas = assay: Greenhouse pre-emergence herbicidal activity, PAPRH
Method: as §1, §2, §3, §4, §5
(§12) In the following experiments, the herbicidal activity for the individual herbicidal compositions (solo and mixture applications) was assessed 20 days after treatment (DAT). […]
(§13) The value E corresponds to the effect (plant damage or injury) which is to be expected if the activity of the individual compounds is additive. If the observed effect is higher than the value E calculated according to the Colby equation, a synergistic effect is present. […]

Amaranthus retroflexus = assay: Greenhouse pre-emergence herbicidal activity, AMARE
Method: as §1, §2, §3, §4, §5, §12, §13

Geranium dissectum = assay: Greenhouse pre-emergence herbicidal activity, GERDI
Method: as §1, §2, §3, §4, §5, §6, §7, §8, §9, §10, §11

Polygonum convolvulus = assay: Greenhouse pre-emergence herbicidal activity, POLCO
Method: as §1, §2, §3, §4, §5, §6, §7, §8, §9, §10, §11

Anthemis arvensis = assay: Greenhouse pre-emergence herbicidal activity, ANTAR
Method: as §1, §2, §3, §4, §5, §12, §13

Lolium multiflorum = assay: Greenhouse pre-emergence herbicidal activity, LOLMU
Method: as §1, §2, §3, §4, §5, §6, §7, §8, §9, §10, §11

Alopecurus myosuroides = assay: Greenhouse pre-emergence herbicidal activity, ALOMY
Method: as §1, §2, §3, §4, §5, §12, §13

Echinochloa crus-galli = assay: Greenhouse pre-emergence herbicidal activity, ECHCG
Method: as §1, §2, §3, §4, §5, §6, §7, §8, §9, §10, §11

Sorghum halepense = assay: Greenhouse pre-emergence herbicidal activity, SORHA
Method: as §1, §2, §3, §4, §5, §6, §7, §8, §9, §10, §11

Avena fatua = assay: Greenhouse pre-emergence herbicidal activity, AVEFA
Method: as §1, §2, §3, §4, §5, §6, §7, §8, §9, §10, §11

Stellaria media = assay: Greenhouse pre-emergence herbicidal activity, STEME
Method: as §1, §2, §3, §4, §5, §6, §7, §8, §9, §10, §11

Question: Cc1cnc2c(C(=O)O)c(Cl)ccc2c1 [quinmerac, 7-chloro-3-methylquinoline-8-carboxylic acid] was tested. Which herbicidal activity (Setaria viridis; 31.25 g ai/ha) did it give?
Answer: The herbicidal activity was 0%.

Question: What about the herbicidal activity (Setaria viridis; 62.5 g ai/ha) of the same compound?
Answer: Its herbicidal activity is 0%.

Question: And the herbicidal activity (Abutilon theophrasti; 50 g ai/ha)?
Answer: The herbicidal activity was 0%.

Question: What about the herbicidal activity (Abutilon theophrasti; 200 g ai/ha) of the same compound?
Answer: Its herbicidal activity is 0%.

Question: What about the herbicidal activity (Digitaria sanguinalis; 31.25 g ai/ha) of the same compound?
Answer: Its herbicidal activity is 0%.

Question: What about the herbicidal activity (Digitaria sanguinalis; 62.5 g ai/ha) of the same compound?
Answer: Its herbicidal activity is 0%.

Question: And the herbicidal activity (Digitaria sanguinalis; 125 g ai/ha)?
Answer: Its herbicidal activity is 0%.

Question: What about the herbicidal activity (Digitaria sanguinalis; 250 g ai/ha) of the same compound?
Answer: Its herbicidal activity is 0%.

Question: What about the herbicidal activity (Papaver rhoeas; 31.25 g ai/ha) of the same compound?
Answer: Its herbicidal activity is 0%.

Question: And the herbicidal activity (Amaranthus retroflexus; 250 g ai/ha)?
Answer: The herbicidal activity was 0%.

Question: What about the herbicidal activity (Geranium dissectum; 31.25 g ai/ha) of the same compound?
Answer: The herbicidal activity was 0%.

Question: And the herbicidal activity (Geranium dissectum; 62.5 g ai/ha)?
Answer: The herbicidal activity was 0%.

Question: What about the herbicidal activity (Geranium dissectum; 200 g ai/ha) of the same compound?
Answer: Its herbicidal activity is 0%.

Question: What about the herbicidal activity (Geranium dissectum; 250 g ai/ha) of the same compound?
Answer: The herbicidal activity was 50%.

Question: And the herbicidal activity (Polygonum convolvulus; 100 g ai/ha)?
Answer: Its herbicidal activity is 0%.

Question: What about the herbicidal activity (Polygonum convolvulus; 200 g ai/ha) of the same compound?
Answer: Its herbicidal activity is 0%.

Question: What about the herbicidal activity (Anthemis arvensis; 250 g ai/ha) of the same compound?
Answer: Its herbicidal activity is 0%.

Question: And the herbicidal activity (Lolium multiflorum; 200 g ai/ha)?
Answer: Its herbicidal activity is 25%.

Question: What about the herbicidal activity (Lolium multiflorum; 250 g ai/ha) of the same compound?
Answer: Its herbicidal activity is 0%.

Question: And the herbicidal activity (Alopecurus myosuroides; 250 g ai/ha)?
Answer: The herbicidal activity was 0%.

Question: And the herbicidal activity (Echinochloa crus-galli; 31.25 g ai/ha)?
Answer: The herbicidal activity was 0%.

Question: And the herbicidal activity (Echinochloa crus-galli; 62.5 g ai/ha)?
Answer: Its herbicidal activity is 0%.

Question: What about the herbicidal activity (Sorghum halepense; 62.5 g ai/ha) of the same compound?
Answer: The herbicidal activity was 0%.

Question: And the herbicidal activity (Sorghum halepense; 200 g ai/ha)?
Answer: The herbicidal activity was 25%.

Question: What about the herbicidal activity (Avena fatua; 25 g ai/ha) of the same compound?
Answer: The herbicidal activity was 0%.

Question: And the herbicidal activity (Avena fatua; 50 g ai/ha)?
Answer: Its herbicidal activity is 0%.

Question: What about the herbicidal activity (Avena fatua; 125 g ai/ha) of the same compound?
Answer: The herbicidal activity was 0%.

Question: And the herbicidal activity (Avena fatua; 250 g ai/ha)?
Answer: The herbicidal activity was 0%.

Question: And the herbicidal activity (Stellaria media; 50 g ai/ha)?
Answer: Its herbicidal activity is 0%.

Question: And the herbicidal activity (Stellaria media; 100 g ai/ha)?
Answer: Its herbicidal activity is 0%.

Question: How did the herbicidal activity (Setaria viridis; 12.5 g ai/ha) turn out when “(±)-2-exo-(2-Methylbenzyloxy)-1-methyl-4-isopropyl-7-oxabicyclo[2.2.1]heptane [herbicide A]” was run?
Answer: Its herbicidal activity is 90%.

Question: What about the herbicidal activity (Setaria viridis; 25 g ai/ha) of the same compound?
Answer: The herbicidal activity was 95%.

Question: What about the herbicidal activity (Abutilon theophrasti; 62.5 g ai/ha) of the same compound?
Answer: Its herbicidal activity is 25%.

Question: And the herbicidal activity (Abutilon theophrasti; 250 g ai/ha)?
Answer: Its herbicidal activity is 65%.

Question: What about the herbicidal activity (Digitaria sanguinalis; 12.5 g ai/ha) of the same compound?
Answer: The herbicidal activity was 0%.

Question: And the herbicidal activity (Digitaria sanguinalis; 25 g ai/ha)?
Answer: Its herbicidal activity is 0%.

Question: And the herbicidal activity (Digitaria sanguinalis; 50 g ai/ha)?
Answer: Its herbicidal activity is 70%.

Question: And the herbicidal activity (Digitaria sanguinalis; 100 g ai/ha)?
Answer: Its herbicidal activity is 90%.

Question: And the herbicidal activity (Papaver rhoeas; 12.5 g ai/ha)?
Answer: Its herbicidal activity is 70%.

Question: What about the herbicidal activity (Amaranthus retroflexus; 100 g ai/ha) of the same compound?
Answer: Its herbicidal activity is 30%.

Question: What about the herbicidal activity (Geranium dissectum; 12.5 g ai/ha) of the same compound?
Answer: Its herbicidal activity is 0%.

Question: And the herbicidal activity (Geranium dissectum; 25 g ai/ha)?
Answer: Its herbicidal activity is 0%.

Question: And the herbicidal activity (Geranium dissectum; 100 g ai/ha)?
Answer: The herbicidal activity was 95%.

Question: And the herbicidal activity (Geranium dissectum; 250 g ai/ha)?
Answer: The herbicidal activity was 85%.

Question: What about the herbicidal activity (Polygonum convolvulus; 125 g ai/ha) of the same compound?
Answer: Its herbicidal activity is 0%.

Question: What about the herbicidal activity (Polygonum convolvulus; 250 g ai/ha) of the same compound?
Answer: Its herbicidal activity is 0%.

Question: And the herbicidal activity (Anthemis arvensis; 100 g ai/ha)?
Answer: The herbicidal activity was 0%.

Question: And the herbicidal activity (Lolium multiflorum; 100 g ai/ha)?
Answer: The herbicidal activity was 70%.

Question: And the herbicidal activity (Lolium multiflorum; 250 g ai/ha)?
Answer: The herbicidal activity was 98%.

Question: And the herbicidal activity (Alopecurus myosuroides; 100 g ai/ha)?
Answer: The herbicidal activity was 95%.

Question: What about the herbicidal activity (Echinochloa crus-galli; 12.5 g ai/ha) of the same compound?
Answer: Its herbicidal activity is 95%.

Question: What about the herbicidal activity (Echinochloa crus-galli; 25 g ai/ha) of the same compound?
Answer: The herbicidal activity was 98%.

Question: What about the herbicidal activity (Sorghum halepense; 25 g ai/ha) of the same compound?
Answer: Its herbicidal activity is 98%.

Question: And the herbicidal activity (Sorghum halepense; 250 g ai/ha)?
Answer: The herbicidal activity was 95%.

Question: What about the herbicidal activity (Avena fatua; 31.25 g ai/ha) of the same compound?
Answer: Its herbicidal activity is 0%.

Question: What about the herbicidal activity (Avena fatua; 50 g ai/ha) of the same compound?
Answer: Its herbicidal activity is 0%.

Question: What about the herbicidal activity (Avena fatua; 62.5 g ai/ha) of the same compound?
Answer: The herbicidal activity was 30%.

Question: And the herbicidal activity (Avena fatua; 100 g ai/ha)?
Answer: The herbicidal activity was 10%.

Question: And the herbicidal activity (Stellaria media; 62.5 g ai/ha)?
Answer: The herbicidal activity was 0%.

Question: And the herbicidal activity (Stellaria media; 125 g ai/ha)?
Answer: Its herbicidal activity is 40%.
